In patent US8013112B2, “Compositions comprising human brain natriuretic peptide (BNP) fragments” (Abbott Laboratories, priority 2006, dated 2011):
Bridges are numbered along the chain shown (N, C = ends). Roman numbers before positions name the chains, in order. Where no end group is shown, it is not given here.

Tests used:
[1] = assay type: in vitro ADME, human
Procedure: EDTA plasma of healthy human subjects and human BNP plasma specimens were obtained from ProMedDx LLC (Norton, Mass.), shipped on dry ice, and stored at −70° C. before use.
In this study, human BNP degradation products in human BNP specimens and the impact of temperature on degradation was studied. Prior to sample extractions for analysis, each sample was split into two vials and incubated at room temperature for 0 hours (t=0 hour) and 48 hours (t=48 hours), respectively. The samples were then extracted using the methodology described in Example 4 and analyzed by the API 4000.
Experiments were conducted to determine if human BNP n-32 fragments (where n is an interger b=1, 2, 3, 4, 5, 6) were present in the specimen and to evaluate whether aminopeptidase type protease is involved in human BNP degradation. The samples were prepared and analyzed using the same methodology as described in Example 4, except that samples were monitored for human BNP n-32 fragments (n=1, 2, 3, 4, 5, 6[…]).
Next, to determine if ring cleavage products were present, human BNP fragment 5-32x was then monitored prior to and after incubation at room temperature. The samples were not monitored for other human BNP n-32x fragments since these fragments would be formed by the same process as human BNP 5-32x fragments. Additionally, monitoring for more fragments would reduce the detection sensitivity of the method.
Using both of these approaches, human BNP fragments prior to and after room temperature incubation were monitored for both human BNP n-32 fragments and human BNP n-32x fragments for 20 samples.

[2] = assay type: in vitro ADME, human; remark: listed apart in the source
Procedure: Human BNP was spiked into Human BNP specimens (EDTA plasma) using the same procedure as in Example 2, and the spiked samples were studied using the same methodology as in Example 4. […] However, the cleavage rates appeared to be slower in the heart-failure patient samples: after 8 hours incubation at the room temperature, 80% of the degradation products still contain the C-terminus (human BNP fragment 3-32, human BNP 1-32, and human BNP fragments 3-32X and 1-32x). When the same concentration of human BNP was spiked into a pooled EDTA plasma of healthy human subjects, only 5% of the fragments contain intact C-terminus after 4 hours incubation at room temperature (See, Example 5).

[3] = Degradation time course of human BNP 1-32 spiked in pooled EDTA plasma of healthy human subjects, LC/MS
Text: An aliquot of the mixture was taken at various time points with protease inhibitor added and frozen immediately. Samples were extracted along with an internal standard (the internal standard was a biotinylated human BNP mutant. In this mutant, amino acid 32 (histidine) was replaced by alanine and is hereinafter referred to as “Biotin-BNP1-32 (H32A)”) by a monoclonal antibody 106.3 (hereinafter referred to as “mAb 106.3”) coated magnetic microparticles and released human BNP and fragments were analyzed by LC/MS. The relative abundance of each fragments were plotted.
To study human BNP degradation near physiological concentration, an API4000 LC/MS system (Applied Biosystems, Foster City, Calif.) equipped with Agilent 1100 HPLC was used to determine the degradation of human BNP spiked at 5 ng/mL in a pooled normal EDTA plasma. […] The major human BNP degradation products (namely, 1-32, 3-32, 3-30, and 3-30x) and kinetics were analyzed by LC/MS using selected ion monitoring mode according to instrument protocol. […]
The relative concentration of human BNP fragments 3-32, 3-30 and 3-30x were monitored at various time points (0.5, 4, 6, 8, 10, 24 hours). Triply charged human BNP peptides and human BNP fragments, namely, 1-32, 3-32, 3-30, and 3-30x were monitored at m/z 1155.6, 1094.6.

Compound | Human BNP fragment Peak high ranking (T = 0 hours) [1] | degradation products that still contain the C-terminus [2] [%] | relative concentration over the time course of study ([3]; human BNP spiked at 5 ng/mL in pooled normal EDTA plasma, room temperature, 0.5-24 hours (FIG. 7)) | fragments that contain intact C-terminus ([3]; human BNP spiked in pooled EDTA plasma of healthy human subjects, after 4 hours incubation at room temperature) [%] | major cleavage product after incubation at room temperature [1]
5-30x: Human BNP Fragment Composition 5-30x: ring-cleaved, cross-linked form of fragment 5-30 | 4 | – | – | – | –
CC[C@H](C)[C@@H]1NC(=O)[C@H](CCCNC(=N)N)NC(=O)[C@H](CC(=O)O)NC(=O)[C@H](CCSC)NC(=O)[C@H](CCCCN)NC(=O)[C@H](CCCNC(=N)N)NC(=O)CNC(=O)[C@H](Cc2ccccc2)NC(=O)[C@@H](NC(=O)CNC(=O)[C@H](CO)NC(=O)CNC(=O)[C@H](CCC(N)=O)NC(=O)[C@@H](NC(=O)[C@H](CCSC)NC(=O)[C@H](CCCCN)NC(=O)[C@@H]2CCCN2C(=O)[C@@H](N)CO)C(C)C)CSSC[C@@H](C(=O)N[C@@H](CCCCN)C(=O)N[C@H](C(=O)N[C@@H](CC(C)C)C(=O)N[C@@H](CCCN=C(N)N)C(=O)N[C@@H](CCCN=C(N)N)C(=O)N[C@@H](Cc2cnc[nH]2)C(=O)O)C(C)C)NC(=O)CNC(=O)[C@H](CC(C)C)NC(=O)CNC(=O)[C@H](CO)NC(=O)[C@H](CO)NC(=O)[C@H](CO)NC(=O)[C@H](CO)NC1=O [1-32] | 3 | 80 | decreased drastically | 5 | –
5-32x: ring-cleaved, cross-linked form of human BNP fragment 5-32 | – | – | – | – | become the major product
3-30x: Human BNP Fragment Composition: 3-30 with ring cleavage, two fragments (e.g. BNP3-17 and BNP18-30) cross-linked by disulfide bond (chain 1 KMVQGSGCFGRKMDR; chain 2 ISSSSGLGCKVLR; disulfide I:8-II:9 (inferred)) | 5 | – | – | – | –
